Drawing on patent US20210221785A1, “AMINO-PYRIMIDONYL DERIVATIVES, A PROCESS FOR THEIR PREPARATION AND PHARMACEUTICAL COMPOSITIONS CONTAINING THEM” (LES LABORATOIRES SERVIER, priority 2018, published 2021), this text covers IC50 for 22 molecules.

What is called IC50 is the concentration needed to halve the response being measured. A low value points to inhibition by little substance.

T1 sequence (Q93009 208-560 C315A): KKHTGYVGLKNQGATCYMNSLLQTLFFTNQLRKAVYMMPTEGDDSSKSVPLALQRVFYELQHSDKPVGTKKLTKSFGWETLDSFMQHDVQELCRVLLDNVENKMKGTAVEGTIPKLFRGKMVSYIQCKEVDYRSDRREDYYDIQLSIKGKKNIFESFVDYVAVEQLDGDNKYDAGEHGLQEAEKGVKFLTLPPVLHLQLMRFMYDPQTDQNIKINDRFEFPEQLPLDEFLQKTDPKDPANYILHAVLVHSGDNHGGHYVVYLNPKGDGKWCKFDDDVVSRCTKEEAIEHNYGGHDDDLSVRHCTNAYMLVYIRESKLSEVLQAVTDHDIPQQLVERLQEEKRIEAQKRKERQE

This test concerns the target T1, His-His-USP7 (aa208-560, |C315A|) (Homo sapiens, UniProt Q93009, C315A).
T1 construct: His-His-USP7 (aa208-560, |C315A|); His-His (N)
Put plainly: Evaluation of the inhibition of USP7 by the Fluorescence Intensity (FLINT) readings. Format: biochemical. The settings on record: 0.25 nM His-His-USP7, compound incubated 60 minutes at 30° C., 500 nM Ubiquitin-Rhodamine-110 substrate; 50% reduction in kinetic rate. Here is the method:
USP7 activity was measured using Rhodamine-110 c-terminal labelled Ubiquitin as a substrate (UbiQ Bio). Incubation with USP7 results in the release of Rhodamine-110 leading to an increase in fluorescence which can be used in the continuous measurement of USP7 activity.
The USP7 reactions were performed in a 50 μL volume, in 384 well black solid low binding plates (Corning #3575). The reaction buffer consisted of 100 mM Bicine pH 8.0, 0.01% TritonX100, 1 mM TCEP, and 10% DMSO.
0.25 nM His-His-USP7 (aa208-560, |C315A|) was incubated with compound (final concentration 10% DMSO) for 60 minutes at 30° C. The reaction was then initiated by the addition of 500 nM Ubiquitin-Rhodamme-110 substrate and the plate read every 3 minutes for 21 minutes to measure the release of Rhodamine-110. Fluorescence Intensity (FLINT) readings were measured using a […] plate reader (Ex.485 nm, Em.535 nm).
The inhibition of increasing doses of compound was expressed as a percentage reduction in kinetic rate compared to the kinetic rates established between ‘DMSO only’ and ‘total inhibition’ controls (no USP7). The inhibitory concentrations that gave a 50% reduction in kinetic rate (IC50) were determined, from 11-point dose response cures, in XL-Fit using a 4-Parameter Logistic Model 205 (Sigmoidal Dose-Response Model).
The molecule `Nc1c(Oc2cccc(C(F)(F)F)c2)ncn(CC2(O)CCN(C(=O)[C@@H]3CCC(F)(F)C[C@H]3c3ccccc3)CC2)c1=O` [Example 22, 5-amino-3-({1-[(1R,2R)-4,4-difluoro-2-phenylcyclohexane-1-carbonyl]-4-hydroxypiperidin-4-yl}methyl)-6-[3-(trifluoromethyl)phenoxy]pyrimidin-4(3H)-one] gave an IC50 of 264 nM.

In turn, `N#Cc1cccc(Oc2ncn(CC3(O)CCN(C(=O)[C@@H]4CCC(F)(F)C[C@H]4c4ccccc4)CC3)c(=O)c2N)c1` [Example 25, 3-{[5-amino-1-({1-[(1R,2R)-4,4-difluoro-2-phenylcyclohexane-1-carbonyl]-4-hydroxypiperidin-4-yl}methyl)-6-oxo-1,6-dihydropyrimidin-4-yl]oxy}benzonitrile] returned a half-inhibitory concentration (IC50) of 203 nM.

Regarding `COC(=O)c1cccc(Oc2ncn(CC3(O)CCN(C(=O)[C@@H]4CCC(F)(F)C[C@H]4c4ccccc4)CC3)c(=O)c2N)c1` [Example 27, methyl 3-{[5-amino-1-({1-[(1R,2R)-4,4-difluoro-2-phenylcyclohexane-1-carbonyl]-4-hydroxypiperidin-4-yl}methyl)-6-oxo-1,6-dihydropyrimidin-4-yl]oxy}benzoate], it took 85 nM to reach half-maximal inhibition (IC50).

For the molecule `Nc1c(Oc2ccc(CCCO)cc2)ncn(CC2(O)CCN(C(=O)[C@@H]3CCC(F)(F)C[C@H]3c3ccccc3)CC2)c1=O` [Example 29, 5-amino-3-({1-[(1R,2R)-4,4-difluoro-2-phenylcyclohexane-1-carbonyl]-4-hydroxypiperidin-4-yl}methyl)-6-[4-(3-hydroxypropyl)phenoxy]pyrimidin-4(3H)-one], inhibition was half-maximal at 175 nM (IC50).

`Nc1c(Sc2ccccc2)ncn(CC2(O)CCN(C(=O)[C@@H]3CCC(F)(F)C[C@H]3c3ccccc3)CC2)c1=O` [Example 30, 5-amino-3-({1-[(1R,2R)-4,4-difluoro-2-phenylcyclohexane-1-carbonyl]-4-hydroxypiperidin-4-yl}methyl)-6-(phenylsulfanyl)pyrimidin-4(3H)-one] yielded an IC50 of 151 nM.

As to `Nc1c(Oc2ccc(CC(F)(F)F)cc2)ncn(CC2(O)CCN(C(=O)[C@@H]3CCC(F)(F)C[C@H]3c3ccccc3)CC2)c1=O` [Example 37, 5-amino-3-({1-[(1R,2R)-4,4-difluoro-2-phenylcyclohexane-1-carbonyl]-4-hydroxypiperidin-4-yl}methyl)-6-[4-(2,2,2-trifluoroethyl)phenoxyl]pyrimidin-4(3H)-one], half-maximal inhibition (IC50) was put at 158 nM.

Regarding `Nc1c(Oc2ccc(CCF)cc2)ncn(CC2(O)CCN(C(=O)[C@@H]3CCC(F)(F)C[C@H]3c3ccccc3)CC2)c1=O` [Example 39, 5-amino-3-({1-[(1R,2R)-4,4-difluoro-2-phenylcyclohexane-1-carbanyl]-4-hydroxypiperidin-4-yl}methyl)-6-[4-(2-fluoroethyl)phenoxy]pyrimidin4(3H)-one], the concentration for half-maximal inhibition (IC50) was 116 nM.

In turn, `Nc1c(Oc2ccc(F)c(OC(F)(F)F)c2)ncn(CC2(O)CCN(C(=O)[C@@H]3CCC(F)(F)C[C@H]3c3ccccc3)CC2)c1=O` [Example 40, 5-amino-3-({1-[(1R,2R)-4,4-difluoro-2-phenylcyclohexane-1-carbonyl]-4-hydroxypiperidin-4-yl}methyl)-6-[4-fluoro-3-(trifluoromethoxy)phenoxy]pyrimidin-4(3H)-one] displayed a half-inhibitory concentration (IC50) of 132 nM.

For the molecule `Nc1c(Oc2cccc(C3CCCCN3)c2)ncn(CC2(O)CCN(C(=O)[C@@H]3CCC(F)(F)C[C@H]3c3ccccc3)CC2)c1=O` (stereo partly drawn) [Example 47, 5-amino-3-({1-[(1R,2R)-4,4-difluoro-2-phenylcyclohexane-1-carbonyl]-4-hydroxypiperidin-4-yl}methyl)-6-[3-(piperidin-2-yl)phenoxy]pyrimidin-4(3H)-one], the half-maximal inhibitory concentration (IC50) was found to be 8.81 nM.

As for `CC(C)(O)c1cccc(Oc2ncn(CC3(O)CCN(C(=O)[C@@H]4CCC(F)(F)C[C@H]4c4ccccc4)CC3)c(=O)c2N)c1` [Example 49, 5-amino-3-({1-[(1R,2R)-4,4-difluoro-2-phenylcyclohexane-1-carbonyl]-4-hydroxypiperidin-4-yl}methyl)-6-[3-(2-hydroxypropan-2yl)phenoxy]pyrimidin-4(3H)-one], the 50% inhibitory concentration (IC50) came to 138 nM.

Turning to `N#Cc1ccc(Oc2ncn(CC3(O)CCN(C(=O)[C@@H]4CCC(F)(F)C[C@H]4c4ccccc4)CC3)c(=O)c2N)cc1F` [Example 50, 4-{[5-amino-1-({1-[(1R,2R)-4,4-fluoro-2-phenylcyclohexane-1-carbonyl]-4-hydroxypiperidin-4-yl}methyl)-6-oxo-1,6-dihydropyrimidin-4-yl]oxy}-2-fluorobenzonitrile], the IC50 was found to be 116 nM.

For `N#Cc1ccc(Oc2ncn(CC3(O)CCN(C(=O)[C@@H]4CCC(F)(F)C[C@H]4c4ccccc4)CC3)c(=O)c2N)cc1Cl` [Example 51, 4-{[5-amino-({1-[(1R,2R)-4,4difluoro-2-phenylcyclohexane-1-carbonyl]-4-hydroxypiperidin-4-yl}methyl)-6-oxo-1,6-dihydropyrimidin-4-yl]oxy}-2-chlorobenzonitrile], half-maximal inhibition (IC50) required 120 nM.

Regarding `N#Cc1ccc(Oc2ncn(CC3(O)CCN(C(=O)[C@@H]4CCC(F)(F)C[C@H]4c4ccccc4)CC3)c(=O)c2N)c(Cl)c1` [Example 53, 4-{[5-amino-1-([1-[(1R,2R)-4,4-difluoro-2-phenylcyclohexane-1-carbanyl]-4-hydroxypiperidin-4-yl]methyl)-6-oxo-1,6-dihydropyrimidin-4-yl]oxy}-3-chlorobenzonitrile], the IC50 was found to be 439 nM.

Turning to `O=C([C@@H]1CCC(F)(F)C[C@H]1c1ccccc1)N1CCC(O)(Cn2cnc(Oc3ccc(F)cc3)c(NCc3ccccc3)c2=O)CC1` [Example 57, 5-(benzylamino)-3-({1-[(1R,2R)-4,4-difluoro-2-phenylcyclohexane-1-carbonyl]-4-hydroxypiperidin-4-yl}methyl)-6-(4-fluorophenoxy)pyrimidin-4(3H)-one], the 50% inhibitory concentration (IC50) is 611 nM.

Turning to `NC(=O)c1ccc(Oc2ncn(CC3(O)CCN(C(=O)[C@@H]4CCC(F)(F)C[C@H]4c4ccccc4)CC3)c(=O)c2N)cc1` [Example 58, 4-{[5-amino-1-({1-[(1R,2R)-4,4-difluoro-2-phenylcyclohexane-1-carbonyl]-4-hydroxypiperidin-4-yl}methyl)-6-oxo-1,6-dihydropyrimidin-4-yl]oxy}benzamide], 67 nM corresponded to half-maximal inhibition (IC50).

Regarding `CNCc1ccc(Oc2ncn(CC3(O)CCN(C(=O)[C@@H]4CCC(F)(F)C[C@H]4c4ccccc4)CC3)c(=O)c2N)cc1` [Example 60, 5-amino-3-({1-((1R,2R)-4,4-difluoro-2-phenylcyclohexane-1-carbony]-4-hydroxypiperidin-4-yl}methyl)-6-{4-[(methylamino)methyl]phenoxy}pyrimidin-4(3H)-one], the midpoint of inhibition, the IC50, lay at 6.5 nM.

For `NC(=O)c1cccc(Oc2ncn(CC3(O)CCN(C(=O)[C@@H]4CCC(F)(F)C[C@H]4c4ccccc4)CC3)c(=O)c2N)c1` [Example 62, 3-{[5-amino-1-([1-[(1R,2R)-4,4-difluoro-2-phenylcyclohexane-1-carbonyl]-4-hydroxypiperidin-4-yl]methyl)-6-oxy-1,6-dihydropyrimidin-4-yl]oxy}benzamide], the half-maximal inhibitory concentration (IC50) was 100 nM.

The molecule `Nc1c(Oc2cccc(C(=O)O)c2)ncn(CC2(O)CCN(C(=O)[C@@H]3CCC(F)(F)C[C@H]3c3ccccc3)CC2)c1=O` [Example 63] registered a 50% inhibitory concentration (IC50) of 1620 nM.

Regarding `NCc1ccc(Oc2ncn(CC3(O)CCN(C(=O)[C@@H]4CCC(F)(F)C[C@H]4c4ccccc4)CC3)c(=O)c2N)c(Cl)c1` [Example 69, 5-amino-6-[4-(aminomethyl)-2-chlorophenoxyl]-3-({1-[(1R,2R)-4,4-difluoro-2-phenylcyclohexane-1-carbonyl]-4-hydroxypiperidin04-yl}methyl)pyrimidin-4(3H)-one], half-maximal inhibition (IC50) required 119 nM.

The molecule `Nc1c(Oc2ccc(CNc3ccccc3)cc2)ncn(CC2(O)CCN(C(=O)[C@@H]3CCC(F)(F)C[C@H]3c3ccccc3)CC2)c1=O` [Example 70, 5-amino-6-[4-(anilinomethyl)phenoxy]-3-({1-[(1R,2R)-4,4-difluoro-2-phenylcyclohexane-1-carbonyl]-4-hydroxypiperidin-4-yl}methyl)pyrimidin-4(3H)-one] registered a half-maximal inhibitory concentration (IC50) of 134 nM.

Molecule `Nc1c(Oc2ccc(CN(C=O)CC(F)(F)F)cc2)ncn(CC2(O)CCN(C(=O)[C@@H]3CCC(F)(F)C[C@H]3c3ccccc3)CC2)c1=O` [Example 74, N-[(4-{[5-amino-1-({1-[(1R,2R)-4,4-difluoro-2-phenylcyclohexane-1-carbonyl]-4-hydroxypiperidin-4-yl}methyl)-6-oxo-1,6-dihydropyrimidin-4-yl]oxy}phenyl)methyl]-N-(2,2,2-trifluoroethyl)formamide] had a 50% inhibitory concentration (IC50) of 227 nM.

The molecule `Nc1c(Oc2ccc(F)cc2)ncn(C[C@]2(O)CCN(C(=O)[C@@H]3CCC(F)(F)C[C@H]3c3ccccc3)CC2(F)F)c1=O` [Example 79, 5-amino-3-({(4R)-1-[(1R,2R)-4,4-difluoro-2-phenylcyclohexane-1-carbonyl]-3,3-difluoro-4-hydroxypiperidin-4-yl}methyl)-6-(4-fluorophenoxy)pyrimidin-4(3H)-one] showed an IC50 of 228 nM.
